Series [1] deals with MDA-MB-231. The series can be described thus: Antiproliferative activity against human MDA-MB-231 cells assessed as inhibition of cell proliferation incubated for 72 hrs in presence of 2-(4-((5-chloro-4-((2-(methylcarbamoyl)phenyl)amino)pyrimidin-2-yl)amino)phenyl)acetic acid by MTT assay. Conditions: MDA-MB-231, 72 h. Type of series: functional, cell-based.
Series [2] relates to MDA-MB-231. Nature of the series: Antiproliferative activity against human MDA-MB-231 cells assessed as inhibition of cell proliferation incubated for 72 hrs by MTT assay. The conditions noted are these: MDA-MB-231, 72 h. It is filed as functional, cell-based.
The test system of series [3] is MDA-MB-453. Nature of the series: Antiproliferative activity against human MDA-MB-453 cells assessed as inhibition of cell proliferation incubated for 72 hrs by MTT assay. Type of series: functional, cell-based. Conditions: MDA-MB-453, 72 h.
Series [4] concerns MDA-MB-157. The series can be described thus: Antiproliferative activity against human MDA-MB-157 cells assessed as inhibition of cell proliferation incubated for 72 hrs by MTT assay. Type of series: functional, cell-based. Conditions: MDA-MB-157, 72 h.
The subject of series [5] is MDA-MB-231. The series can be described thus: Antiproliferative activity against human MDA-MB-231 cells assessed as inhibition of cell proliferation at 5 uM incubated for 72 hrs by MTT assay relative to control. Type of series: functional.
Series [6] has as its system MDA-MB-231. Nature of the series: Induction of NO production in human MDA-MB-231 cells at 4 uM incubated for 72 hrs by DAF-FM-DA dye based flow cytometry analysis. Type of series: functional, cell-based.
Series [7] has as its target Focal adhesion kinase 1 (Homo sapiens, UniProt Q05397). The series can be described thus: Inhibition of FAK (unknown origin).
Series [8] deals with MDA-MB-231. The series can be described thus: Induction of apoptosis in human MDA-MB-231 cells assessed as dead cells at 4 uM incubated for 72 hrs by Annexin V-FITC/PI staining based flow cytometry analysis (reference value: 0.23%). Type of series: functional.
Series [9] is described as follows: Cytotoxicity against human MCF-10A cells assessed as inhibition of cell proliferation incubated for 72 hrs by MTT assay. Type of series: toxicity, cell-based.
For series [10], the system named is MDA-MB-231. Nature of the series: Induction of apoptosis in human MDA-MB-231 cells assessed as late apoptotic cells at 4 uM incubated for 72 hrs by Annexin V-FITC/PI staining based flow cytometry analysis (reference value: 0.11%). Type of series: functional.
The subject of series [11] is MDA-MB-231. Nature of the series: Induction of apoptosis in human MDA-MB-231 cells assessed as live cells at 4 uM incubated for 72 hrs by Annexin V-FITC/PI staining based flow cytometry analysis (reference value: 97.51%). It is filed as functional.
Series [12] deals with MDA-MB-231. Nature of the series: Induction of apoptosis in human MDA-MB-231 cells assessed as early apoptotic cells at 4 uM incubated for 72 hrs by Annexin V-FITC/PI staining based flow cytometry analysis (reference value: 2.16%). It is filed as functional.

Active and inactive are the calls of the source. The rule behind the calls is not given here.

Sequence of Focal adhesion kinase 1 (Q05397 whole entry): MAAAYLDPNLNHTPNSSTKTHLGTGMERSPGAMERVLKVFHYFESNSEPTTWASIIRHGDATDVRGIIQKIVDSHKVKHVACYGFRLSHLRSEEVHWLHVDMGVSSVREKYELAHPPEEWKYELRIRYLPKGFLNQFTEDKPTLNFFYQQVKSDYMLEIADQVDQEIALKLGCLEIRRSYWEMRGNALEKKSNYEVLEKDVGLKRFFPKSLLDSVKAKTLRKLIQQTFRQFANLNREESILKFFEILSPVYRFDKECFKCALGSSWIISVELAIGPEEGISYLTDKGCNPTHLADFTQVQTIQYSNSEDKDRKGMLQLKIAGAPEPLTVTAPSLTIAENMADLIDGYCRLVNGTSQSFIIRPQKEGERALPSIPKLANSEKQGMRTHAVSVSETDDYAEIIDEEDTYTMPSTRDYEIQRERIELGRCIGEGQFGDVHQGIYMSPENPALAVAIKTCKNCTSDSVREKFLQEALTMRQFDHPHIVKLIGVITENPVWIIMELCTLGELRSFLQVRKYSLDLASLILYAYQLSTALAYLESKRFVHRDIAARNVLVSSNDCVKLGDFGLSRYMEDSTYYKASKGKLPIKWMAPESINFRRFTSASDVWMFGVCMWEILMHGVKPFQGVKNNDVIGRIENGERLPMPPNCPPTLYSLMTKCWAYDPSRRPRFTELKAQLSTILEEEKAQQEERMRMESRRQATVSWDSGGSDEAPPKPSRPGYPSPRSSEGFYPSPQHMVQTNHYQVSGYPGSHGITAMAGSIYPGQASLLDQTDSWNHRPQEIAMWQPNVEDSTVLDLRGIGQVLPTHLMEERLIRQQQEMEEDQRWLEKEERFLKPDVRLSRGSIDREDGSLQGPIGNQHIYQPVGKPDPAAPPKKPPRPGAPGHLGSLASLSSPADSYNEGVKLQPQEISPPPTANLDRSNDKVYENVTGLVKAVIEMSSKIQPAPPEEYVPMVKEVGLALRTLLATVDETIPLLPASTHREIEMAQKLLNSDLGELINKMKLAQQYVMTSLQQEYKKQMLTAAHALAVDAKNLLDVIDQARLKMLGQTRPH

As for `O=S(=O)(c1ccccc1)c1c(OCCCCCCCCO)no[n+]1[O-]`, the results for the IC50 in [1] and in series [2] were 1220 nM and 1500 nM, respectively.
For `CNC(=O)c1ccccc1Nc1nc(Nc2ccc(CC(=O)OCCCCCOc3no[n+]([O-])c3S(=O)(=O)c3ccccc3)cc2)ncc1Cl`, the 50% inhibitory concentration (IC50) amounted to 221 nM in [3], 235 nM in [4], 130 nM in series [2] and 107 nM in [7]. The inhibition at 5 µM in [5] was more than 92%. Besides, in series [6], the outcome was Active.
As to `CNC(=O)c1ccccc1Nc1nc(Nc2ccc(CC(=O)OCCCCCCCOc3no[n+]([O-])c3S(=O)(=O)c3ccccc3)cc2)ncc1Cl`, the IC50 turned out to be 246 nM in series [3], 188 nM in series [4], 129 nM in [2] and 31.4 nM in series [7]. For the same compound, in [5], the inhibition at 5 µM was more than 92%. The result in [6] was Active.
Regarding `CNC(=O)c1ccccc1Nc1nc(Nc2ccc(N3CCOCC3)cc2OC)ncc1Cl`, the results for the IC50 in series [3], in series [4] and in series [2] were 1220 nM, 912 nM and 1170 nM, respectively. In addition, the Activity in series [8] was 0.11%; in series [10], 1.31%; in series [11], 57.79%; in [12], 40.78%. Moreover, in [9], the IC50 at 72 h is 6470 nM.

(Values after ChEMBL document CHEMBL5385886, “Design, synthesis and evaluation of nitric oxide releasing derivatives of 2,4-diaminopyrimidine as novel FAK inhibitors for intervention of metastatic triple-negative breast cancer” (Eur J Med Chem, 2023).)
